# Molecular target: T1, recombinant guanylate cyclase reporter cell line (Rattus norvegicus, UniProt P19686+P20595)
# T1 construct: expressed in transfected cells
# T1 sequence (P20595 1-619): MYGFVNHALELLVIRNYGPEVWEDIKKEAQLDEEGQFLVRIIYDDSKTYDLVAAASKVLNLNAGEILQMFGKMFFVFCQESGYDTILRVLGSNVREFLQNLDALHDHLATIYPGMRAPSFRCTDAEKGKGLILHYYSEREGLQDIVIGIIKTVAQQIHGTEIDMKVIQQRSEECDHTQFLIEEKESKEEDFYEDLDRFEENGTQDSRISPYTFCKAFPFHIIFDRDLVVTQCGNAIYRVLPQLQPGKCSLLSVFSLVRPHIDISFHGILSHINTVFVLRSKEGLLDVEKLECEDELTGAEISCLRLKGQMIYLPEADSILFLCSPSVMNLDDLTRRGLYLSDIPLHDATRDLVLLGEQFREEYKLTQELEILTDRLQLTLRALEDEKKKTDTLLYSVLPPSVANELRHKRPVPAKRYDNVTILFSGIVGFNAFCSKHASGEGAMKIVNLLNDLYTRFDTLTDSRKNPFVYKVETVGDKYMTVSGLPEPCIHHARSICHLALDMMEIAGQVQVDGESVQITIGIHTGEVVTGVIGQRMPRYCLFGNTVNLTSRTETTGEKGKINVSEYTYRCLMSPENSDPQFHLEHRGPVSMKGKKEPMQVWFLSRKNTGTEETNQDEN
# T1 sequence (P19686 1-690): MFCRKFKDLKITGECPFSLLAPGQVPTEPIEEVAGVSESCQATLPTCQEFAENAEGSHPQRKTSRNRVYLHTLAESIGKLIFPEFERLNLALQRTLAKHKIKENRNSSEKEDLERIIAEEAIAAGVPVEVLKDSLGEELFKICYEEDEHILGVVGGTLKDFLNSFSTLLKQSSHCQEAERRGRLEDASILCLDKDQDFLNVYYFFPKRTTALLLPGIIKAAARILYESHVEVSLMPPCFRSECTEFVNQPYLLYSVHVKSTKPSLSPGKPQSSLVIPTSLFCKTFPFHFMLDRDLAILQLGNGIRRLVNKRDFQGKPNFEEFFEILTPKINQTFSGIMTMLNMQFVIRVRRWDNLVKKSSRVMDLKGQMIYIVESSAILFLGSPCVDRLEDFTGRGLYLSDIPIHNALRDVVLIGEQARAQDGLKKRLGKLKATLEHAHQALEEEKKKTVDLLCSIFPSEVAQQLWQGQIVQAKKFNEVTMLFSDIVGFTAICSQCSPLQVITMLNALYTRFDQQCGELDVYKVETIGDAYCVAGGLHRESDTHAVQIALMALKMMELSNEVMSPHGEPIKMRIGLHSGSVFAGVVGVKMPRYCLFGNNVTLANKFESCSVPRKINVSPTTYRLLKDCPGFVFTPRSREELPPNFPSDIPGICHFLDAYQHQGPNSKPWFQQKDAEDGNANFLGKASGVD
# Test: B-2. Action on recombinant guanylate cyclase reporter cell line
# Assay type: cell-based
# Conditions: MEC = minimal effective concentration; in some cases mean values from individual determinations
# In short: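 Each compound is applied to a cell line engineered with a reporter for recombinant guanylate cyclase. The minimal effective concentration is then noted, in part as a mean across separate determinations.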
row,MEC,SMILES
1,0.30 µM,"Cc1cc(OCc2c(F)cccc2F)c2nc(C)c(C(=O)NC3CCC3N)n2c1 (single isomer, unassigned; enantiomer b) [Example 329, ent-N-(2-aminocyclobutyl)-8-[(2,6-difluorobenzyl)oxy]-2,6-dimethylimidazo[1,2-a]pyridine-3-carboxamide (Enantiomer B)]"
2,1.00 µM,"Cc1cc(OCc2c(F)cccc2F)c2nc(C)c(C(=O)NC3CCC3(C)N)n2c1 (single isomer, unassigned; enantiomer b) [Example 333, ent-N-[2-amino-2-methylcyclobutyl]-8-[(2,6-difluorobenzyl)oxy]-2,6-dimethylimidazo[1,2-a]pyridine-3-carboxamide (Enantiomer B)]"
3,0.55 µM,"Cc1cc(OCc2c(F)cccc2F)c2nc(C)c(C(=O)NC3(C)CCC3(C)N)n2c1 (single isomer, unassigned; enantiomer b) [Example 337, ent-N-[(2-amino-1,2-dimethylcyclobutyl]-8-[(2,6-difluorobenzyl)oxy]-2,6-dimethylimidazo[1,2-a]pyridine-3-carboxamide (Enantiomer B)]"
4,0.30 µM,"Cc1cc(OCc2c(F)cccc2F)c2nc(C)c(C(=O)NCC(N)C#N)n2c1 (single isomer, unassigned; enantiomer b) [Example 402, ent-N-(2-amino-2-cyanoethyl)-8-[(2,6-difluorobenzyl)oxy]-2,6-dimethylimidazo[1,2-a]pyridine-3-carboxamide (Enantiomer B)]"
5,0.03 µM,"Cc1cc(OCc2c(F)cccc2F)c2nc(C)c(C(=O)NCC(C)(N)CCC(F)(F)F)n2c1 (single isomer, unassigned; enantiomer b) [Example 409, ent-N-(2-amino-5,5,5-trifluoro-2-methylpentyl)-8-[(2,6-difluorobenzyl)oxy]-2,6-dimethylimidazo[1,2-a]pyridine-3-carboxamide (Enantiomer B)]"
6,0.03 µM,"Cc1cc(OCc2c(F)ccc(F)c2F)c2nc(C)c(C(=O)NCC(C)(N)CCC(F)(F)F)n2c1 (single isomer, unassigned; enantiomer b) [Example 411, ent-N-(2-amino-5,5,5-trifluoro-2-methylpentyl)-2,6-dimethyl-8-[(2,3,6-trifluorobenzyl)oxy]imidazo[1,2-a]pyridine-3-carboxamide (Enantiomer B)]"
7,1.00 µM,"Cc1nc2c(OCc3c(F)cccc3F)cc(Cl)cn2c1C(=O)NCC1CCCCN1 (single isomer, unassigned; ent-6) [Example 190, ent-6-Chloro-8-[(2,6-difluorobenzyl)oxy]-2-methyl-N-(piperidin-2-ylmethyl)imidazo[1,2-a]-pyridine-3-carboxamide]"
8,1.00 µM,"Cc1nc2c(OCc3c(F)cccc3F)cc(Cl)cn2c1C(=O)NCC1CCCCN1 (single isomer, unassigned; ent-6) [Example 191, ent-6-Chloro-8-[(2,6-difluorobenzyl)oxy]-2-methyl-N-(piperidin-2-ylmethyl)imidazo[1,2-a]-pyridine-3-carboxamide]"
9,1.00 µM,"Cc1nc2c(OCc3c(F)cccc3F)cccn2c1C(=O)NC1CCNc2ccc(C(F)(F)F)cc21 (single isomer, unassigned; ent-8) [Example 111, ent-8-[(2,6-difluorobenzyl)oxy]-2-methyl-N-[6-(trifluoromethyl)-1,2,3,4-tetrahydroquinolin-4-yl]imidazo[1,2-a]pyridine-3-carboxamide]"
10,0.10 µM,"Cc1nc2c(OCc3c(F)cccc3F)cccn2c1C(=O)NC1CCNc2ccc(C(F)(F)F)cc21 (single isomer, unassigned; ent-8) [Example 112, ent-8-[(2,6-difluorobenzyl)oxy]-2-methyl-N-[6-(trifluoromethyl)-1,2,3,4-tetrahydroquinolin-4-yl]imidazo[1,2-a]pyridine-3-carboxamide]"
11,1.00 µM,"Cc1nc2c(OCc3c(F)cccc3F)cccn2c1C(=O)NCC(C)N1CCOCC1 (single isomer, unassigned; ent-8) [Example 180, ent-8-[(2,6-Difluorobenzyl)oxy]-2-methyl-N-[2-(morpholin-4-yl)propyl]imidazo[1,2-a]pyridine-3-carboxamide]"
12,1.00 µM,"Cc1nc2c(OCc3c(F)cccc3F)cccn2c1C(=O)NCC(C)N1CCOCC1 (single isomer, unassigned; ent-8) [Example 181, ent-8-[(2,6-Difluorobenzyl)oxy]-2-methyl-N-[2-(morpholin-4-yl)propyl]imidazo[1,2-a]pyridine-3-carboxamide]"
13,3.00 µM,"Cc1nc2c(OCc3c(F)cccc3F)cccn2c1C(=O)NC(CN1CCOCC1)c1ccccc1 (single isomer, unassigned; ent-8) [Example 182, ent-8-[(2,6-Difluorobenzyl)oxy]-2-methyl-N-[2-(morpholin-4-yl)-1-phenylethyl]imidazo[1,2-a]-pyridine-3-carboxamide]"

# The next lines start with the molecule.
row,SMILES,MEC
1,"Cc1nc2c(OCc3c(F)cccc3F)cc(Cl)cn2c1C(=O)NC1CNCc2ccccc21 (single isomer, unassigned; ent-6) [Example 107, ent-6-chloro-8-[(2,6-difluorobenzyl)oxy]-2-methyl-N-(1,2,3,4-tetrahydroisoquinolin-4-yl)imidazo[1,2-a]pyridine-3-carboxamide]",0.30 µM
2,"Cc1nc2c(OCc3c(F)cccc3F)cc(Cl)cn2c1C(=O)NC1CNCc2ccccc21 (single isomer, unassigned; ent-6) [Example 108, ent-6-chloro-8-[(2,6-difluorobenzyl)oxy]-2-methyl-N-(1,2,3,4-tetrahydroisoquinolin-4-yl)imidazo[1,2-a]pyridine-3-carboxamide]",1.00 µM
3,"Cc1nc2c(OCc3c(F)cccc3F)cccn2c1C(=O)NC1CNc2ccccc21 (single isomer, unassigned; ent-8) [Example 47, ent-8-[(2,6-Difluorobenzyl)oxy]-N-(2,3-dihydro-1H-indol-3-yl)-2-methylimidazo[1,2-a]pyridine-3-carboxamide]",0.30 µM
4,"Cc1nc2c(OCc3c(F)cccc3F)cccn2c1C(=O)NC1CCNc2ccccc21 (single isomer, unassigned; ent-8) [Example 52, ent-8-[(2,6-Difluorobenzyl)oxy]-2-methyl-N-(1,2,3,4-tetrahydroquinolin-4-yl)imidazo[1,2-a]-pyridine-3-carboxamide]",0.03 µM
5,"Cc1nc2c(OCc3c(F)cccc3F)cccn2c1C(=O)NC1CNc2ccccc2C1 (single isomer, unassigned; ent-8) [Example 81, ent-8-[(2,6-Difluorobenzyl)oxy]-2-methyl-N-(1,2,3,4-tetrahydroquinolin-3-yl)imidazo[1,2-a]-pyridine-3-carboxamide]",1.00 µM
6,"Cc1nc2c(OCc3c(F)cccc3F)cccn2c1C(=O)NC1CCNc2ccc(F)cc21 (single isomer, unassigned; ent-8) [Example 105, ent-8-[(2,6-difluorobenzyl)oxy]-N-(6-fluoro-1,2,3,4-tetrahydroquinolin-4-yl)-2-methylimidazo[1,2-a] pyridine-3-carboxamide]",0.30 µM
7,"Cc1nc2c(OCc3c(F)cccc3F)cccn2c1C(=O)NC1CCNc2ccc(F)cc21 (single isomer, unassigned; ent-8) [Example 106, ent-8-[(2,6-difluorobenzyl)oxy]-N-(6-fluoro-1,2,3,4-tetrahydroquinolin-4-yl)-2-methylimidazo[1,2-a] pyridine-3-carboxamide]",0.03 µM
8,"Cc1nc2c(OCc3c(F)cccc3F)cccn2c1C(=O)NC1CNCc2ccccc21 (single isomer, unassigned; ent-8) [Example 109, ent-8-[(2,6-difluorobenzyl)oxy]-2-methyl-N-(1,2,3,4-tetrahydroisoquinolin-4-yl)imidazo[1,2-a]pyridine-3-carboxamide]",1.00 µM
9,"Cc1nc2c(OCc3c(F)cccc3F)cccn2c1C(=O)NC1CNCc2ccccc21 (single isomer, unassigned; ent-8) [Example 110, ent-8-[(2,6-difluorobenzyl)oxy]-2-methyl-N-(1,2,3,4-tetrahydroisoquinolin-4-yl)imidazo[1,2-a]pyridine-3-carboxamide]",0.30 µM

# — patent publication US9624214B2, “Amino-substituted imidazo[1,2-a]pyridinecarboxamides and their use” (BAYER PHARMA AKTIENGESELLSCHAFT, priority 2012, dated 2017)
